# Values of other authors, collected in patent publication US8754089B2, “Heterocyclic compounds and their uses” (Amgen Inc., priority 2009, dated 2014).
# Experiments:
# neutrophil [1] = settings: cited from earlier work
# neutrophil [2] = settings: cited from earlier work; remark: listed apart in the source
# [3] = ovalbumin-induced airway inflammation; cited from earlier work
# protein kinases = settings: cited from earlier work
# p110δ = p110δ (Homo sapiens (Human), UniProt O00329); settings: cited from earlier work
# Sequence of p110δ (O00329 whole entry, looked up, species assumed): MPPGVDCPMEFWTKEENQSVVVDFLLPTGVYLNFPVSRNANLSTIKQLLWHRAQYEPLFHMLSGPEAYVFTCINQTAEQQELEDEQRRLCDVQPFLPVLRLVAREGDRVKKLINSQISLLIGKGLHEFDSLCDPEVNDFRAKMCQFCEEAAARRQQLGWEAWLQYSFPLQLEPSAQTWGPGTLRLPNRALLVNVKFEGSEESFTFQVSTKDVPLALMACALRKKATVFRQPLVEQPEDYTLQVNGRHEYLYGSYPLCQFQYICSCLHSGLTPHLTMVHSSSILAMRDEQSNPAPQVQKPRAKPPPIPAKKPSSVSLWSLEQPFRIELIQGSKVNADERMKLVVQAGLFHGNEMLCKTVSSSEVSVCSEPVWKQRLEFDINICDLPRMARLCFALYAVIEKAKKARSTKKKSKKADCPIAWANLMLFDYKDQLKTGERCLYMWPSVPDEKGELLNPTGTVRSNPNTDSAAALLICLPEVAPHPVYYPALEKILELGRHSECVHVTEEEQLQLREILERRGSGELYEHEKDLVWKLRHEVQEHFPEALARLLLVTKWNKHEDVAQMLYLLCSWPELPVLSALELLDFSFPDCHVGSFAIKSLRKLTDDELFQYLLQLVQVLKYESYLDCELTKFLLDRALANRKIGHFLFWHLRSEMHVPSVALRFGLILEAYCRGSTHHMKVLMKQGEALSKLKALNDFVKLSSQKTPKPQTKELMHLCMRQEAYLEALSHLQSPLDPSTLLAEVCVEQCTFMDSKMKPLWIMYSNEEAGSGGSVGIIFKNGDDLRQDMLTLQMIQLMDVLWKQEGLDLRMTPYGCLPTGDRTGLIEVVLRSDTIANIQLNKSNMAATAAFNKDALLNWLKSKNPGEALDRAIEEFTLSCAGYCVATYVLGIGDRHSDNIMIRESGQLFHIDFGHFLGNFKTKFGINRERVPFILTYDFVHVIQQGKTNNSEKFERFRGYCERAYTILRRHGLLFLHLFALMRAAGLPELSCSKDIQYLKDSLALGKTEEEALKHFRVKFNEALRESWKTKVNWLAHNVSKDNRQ
# Sequence of p110δ (P27986 whole entry partner, looked up, species assumed): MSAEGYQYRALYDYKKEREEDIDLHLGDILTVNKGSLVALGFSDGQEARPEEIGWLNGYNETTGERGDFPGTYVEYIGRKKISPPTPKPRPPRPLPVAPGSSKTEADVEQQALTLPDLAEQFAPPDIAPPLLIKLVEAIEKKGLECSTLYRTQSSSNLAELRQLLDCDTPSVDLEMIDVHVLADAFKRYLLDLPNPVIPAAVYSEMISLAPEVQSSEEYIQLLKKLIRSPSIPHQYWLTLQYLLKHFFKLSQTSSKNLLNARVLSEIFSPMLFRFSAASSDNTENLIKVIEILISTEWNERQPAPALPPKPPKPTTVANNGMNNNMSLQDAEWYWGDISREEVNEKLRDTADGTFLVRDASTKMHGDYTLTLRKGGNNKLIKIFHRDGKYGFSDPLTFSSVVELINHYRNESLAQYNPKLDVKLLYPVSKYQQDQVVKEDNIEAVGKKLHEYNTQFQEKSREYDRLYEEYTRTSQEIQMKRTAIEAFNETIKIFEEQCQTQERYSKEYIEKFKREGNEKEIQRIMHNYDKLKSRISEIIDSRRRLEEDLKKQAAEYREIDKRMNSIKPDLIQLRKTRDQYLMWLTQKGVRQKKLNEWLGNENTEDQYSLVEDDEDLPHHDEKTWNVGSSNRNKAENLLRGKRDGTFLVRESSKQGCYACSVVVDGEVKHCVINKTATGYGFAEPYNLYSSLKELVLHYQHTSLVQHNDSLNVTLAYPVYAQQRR
# [4] = in vivo; cited from earlier work
# [5] = in vivo; cited from earlier work; remark: listed apart in the source
smiles,measurement,setting,value
COC[C@H]1OC(=O)c2coc3c2[C@@]1(C)C1=C(C3=O)[C@@H]2CCC(=O)[C@@]2(C)C[C@H]1OC(C)=O [wortmannin],neutrophil migration,neutrophil [1],block
same,superoxide release,neutrophil [2],block
Cc1ccccc1-n1c(Cn2cnc3c(N)ncnc32)nc2cccc(C)c2c1=O [IC87114],inflammation and disease in a murine model of asthma,[3],significantly ameliorate inflammation and disease
same,activity against any protein kinases tested,protein kinases,no activity
same,inhibition of p110δ,p110δ,high nanomolar range (triple digit)
O=C1NC(=O)/C(=C\c2ccc3nccnc3c2)S1 [AS 605240],onset of disease in a model of systemic lupus erythematosis,[4],delay onset of disease
same,efficacy in a mouse model of rheumatoid arthritis,[5],efficacious
O=c1cc(N2CCOCC2)oc2c(-c3ccccc3)cccc12 [LY294002],neutrophil migration,neutrophil [1],block
same,superoxide release,neutrophil [2],block
